The nature of the series: Solubility description. The class given is physicochemical.

Take `C[C@]12CC[C@@H]3c4ccc(O)cc4CC[C@H]3[C@@H]1[C@@H](O)[C@@H](O)C2O` (stereo in doubt) [Estetrol monohydrate, estra-1,3,5(10)-triene-3,15α,16α,17α-tetrol monohydrate]: the Solubility result (acetone) is “sparingly soluble”; the Solubility result (ethyl acetate and acetonitrile) is “slightly soluble”; the Solubility entry (methanol, ethanol) is given as “soluble”; the Solubility entry (water and aqueous solutions) is “poorly soluble”.

Turning to `C[C@]12CCC(=O)C=C1[C@@H]1C[C@@H]1[C@H]1[C@@H]3[C@@H]4C[C@@H]4[C@@]4(CCC(=O)O4)[C@@]3(C)CC[C@@H]12` [Drospirenone], for the setting “water”, the Solubility entry is given as “slight solubility”.

(Values after US20250152608A1, “CONTRACEPTIVE METHODS WITH IMPROVED PEARL INDEX” (ESTETRA SRL, priority 2022, published 2025).)
